Assay results taken from PubChem BioAssay AID330 (DTP/NCI, 2004).
“And” between values parts separate entries of the source, which are not always exact repeats. Equal values may be shown once. Inconclusive results and toxic doses are left out. The calls were made as follows: active = survival T/C of 150% or more; inactive = T/C below 125% in these data.

System: P388 leukemia ip, CD2F1 mice, survival T/C
Experiment: NCI In Vivo Anticancer Drug Screen. Data for tumor model P388 Leukemia (intraperitoneal) in CD2F1 (CDF1) mice
Conditions: endpoint: median survival time, higher = longer survival
Outline: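 Mice carrying the transplanted tumor received test compound or vehicle. Survival was recorded in each group, and the value is the treated-group measurement divided by that of the vehicle-treated control group.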

[1] = dose: 100.0 mg/kg/injection, schedule: Q01DX001 (ip), vehicle: saline with Tween-80
[2] = dose: 200.0 mg/kg/injection, schedule: Q01DX001 (ip), vehicle: saline with Tween-80
[3] = dose: 400.0 mg/kg/injection, schedule: Q01DX001 (ip), vehicle: saline with Tween-80
[4] = dose: 100.0 mg/kg/injection, schedule: Q04DX002 (ip), vehicle: saline with Tween-80
[5] = dose: 200.0 mg/kg/injection, schedule: Q04DX002 (ip), vehicle: saline with Tween-80
[6] = dose: 50.0 mg/kg/injection, schedule: Q01DX009 (ip), vehicle: Klucel (hydroxypropylcellulose) (HPC)
[7] = dose: 50.0 mg/kg/injection, schedule: Q01DX005 (ip), vehicle: saline with Tween-80
[8] = dose: 100.0 mg/kg/injection, schedule: Q01DX005 (ip), vehicle: saline with Tween-80
[9] = dose: 200.0 mg/kg/injection, schedule: Q01DX005 (ip), vehicle: saline with Tween-80
[10] = dose: 50.0 mg/kg/injection, schedule: Q01DX005 (ip), vehicle: Klucel (hydroxypropylcellulose) (HPC)
[11] = dose: 100.0 mg/kg/injection, schedule: Q01DX005 (ip), vehicle: Klucel (hydroxypropylcellulose) (HPC)
[12] = dose: 200.0 mg/kg/injection, schedule: Q01DX005 (ip), vehicle: Klucel (hydroxypropylcellulose) (HPC)

Measured: T/C

CCC(c1ccc(OC)cc1)C(NCC(=O)NNC(=S)Nc1ccccc1)c1ccc(OC)cc1 (stereo not drawn)
inactive: [1] 92 % of control | [2] 101 % of control | [3] 108 % of control

CCOc1c(N2CCOCC2)c(=O)c1=O
inactive: [1] 100 % of control | [2] 100 % of control | [3] 90 % of control

CN(C)C1C(O)C2Oc3c(cc(O)c4c3C(=O)c3cc5c(c(O)c3C4=O)C(N)CC(C)(O)C5)C(C)(O2)C1O (stereo not drawn)
inactive: dose: 5.0 mg/kg/injection, schedule: Q01DX009 (ip), vehicle: other 118 % of control

C=C(C#N)C1OC2OC(C)(C)OC2C1OCCCCCCCC (stereo not drawn)
inactive: [4] 106 % of control | [5] 106 % of control

C[n+]1c(-c2ccc(/C=N\Nc3nnc(S)n3/N=C/c3ccc(-c4cn5ccccc5[n+]4C)cc3)cc2)cn2ccccc21
inactive: dose: 0.23 mg/kg/injection, schedule: Q01DX005 (ip), vehicle: saline with Tween-80 101 % of control | dose: 0.47 mg/kg/injection, schedule: Q01DX005 (ip), vehicle: saline with Tween-80 92 % of control | dose: 0.94 mg/kg/injection, schedule: Q01DX005 (ip), vehicle: saline with Tween-80 95 % of control | dose: 1.88 mg/kg/injection, schedule: Q01DX005 (ip), vehicle: saline with Tween-80 100 % of control

N#CC(=Nc1ccccc1)c1cccc(Br)c1
inactive: [6] 109 % of control | dose: 100.0 mg/kg/injection, schedule: Q01DX009 (ip), vehicle: Klucel (hydroxypropylcellulose) (HPC) 109 % of control | dose: 200.0 mg/kg/injection, schedule: Q01DX009 (ip), vehicle: Klucel (hydroxypropylcellulose) (HPC) 117 % of control

O=C(NNc1ccccc1)c1ccccc1
inactive: dose: 3.13 mg/kg/injection, schedule: Q01DX009 (ip), vehicle: Klucel (hydroxypropylcellulose) (HPC) 100 % of control | dose: 6.25 mg/kg/injection, schedule: Q01DX009 (ip), vehicle: Klucel (hydroxypropylcellulose) (HPC) 98 % of control | dose: 12.5 mg/kg/injection, schedule: Q01DX009 (ip), vehicle: Klucel (hydroxypropylcellulose) (HPC) 100 % of control | dose: 25.0 mg/kg/injection, schedule: Q01DX009 (ip), vehicle: Klucel (hydroxypropylcellulose) (HPC) 100 % of control | [6] 113 % of control

[N-]=[N+]=C(S(=O)(=O)O)S(=O)(=O)O
inactive: dose: 50.0 mg/kg/injection, schedule: Q01DX009 (ip), vehicle: saline 107 % of control | dose: 100.0 mg/kg/injection, schedule: Q01DX009 (ip), vehicle: saline 112 % of control | dose: 200.0 mg/kg/injection, schedule: Q01DX009 (ip), vehicle: saline 107 % of control | dose: 400.0 mg/kg/injection, schedule: Q01DX009 (ip), vehicle: saline 107 % of control

O=C1C2=C(Nc3cc(Cl)ccc3N2)OC1c1ccc2c(c1)OCO2 (stereo not drawn)
inactive: dose: 60.0 mg/kg/injection, schedule: Q01DX005 (ip), vehicle: Klucel (hydroxypropylcellulose) (HPC) 101 % of control | dose: 120.0 mg/kg/injection, schedule: Q01DX005 (ip), vehicle: Klucel (hydroxypropylcellulose) (HPC) 98 % of control | dose: 240.0 mg/kg/injection, schedule: Q01DX005 (ip), vehicle: Klucel (hydroxypropylcellulose) (HPC) 101 % of control

CNC(=O)c1n[nH]c(C)c1N
inactive: dose: 12.5 mg/kg/injection, schedule: Q04DX003 (ip), vehicle: water 94 % of control | dose: 25.0 mg/kg/injection, schedule: Q04DX003 (ip), vehicle: water 100 % of control | dose: 50.0 mg/kg/injection, schedule: Q04DX003 (ip), vehicle: water 103 % of control | dose: 100.0 mg/kg/injection, schedule: Q04DX003 (ip), vehicle: water 103 % of control | dose: 200.0 mg/kg/injection, schedule: Q04DX003 (ip), vehicle: water 99 % of control

O=Cc1nnc(-c2ccccc2)o1
inactive: dose: 12.5 mg/kg/injection, schedule: Q01DX009 (ip), vehicle: DMSO 90 % of control | dose: 25.0 mg/kg/injection, schedule: Q01DX009 (ip), vehicle: DMSO 98 % of control | dose: 50.0 mg/kg/injection, schedule: Q01DX009 (ip), vehicle: DMSO 93 % of control

O=C1SC(c2ccccc2)=S=C1c1ccccc1
inactive: dose: 50.0 mg/kg/injection, schedule: Q01DX009 (ip), vehicle: saline with Tween-80 104 % of control | dose: 100.0 mg/kg/injection, schedule: Q01DX009 (ip), vehicle: saline with Tween-80 104 % of control | dose: 200.0 mg/kg/injection, schedule: Q01DX009 (ip), vehicle: saline with Tween-80 124 % of control

Nc1nc(N)c2nc(-c3ccc([N+](=O)[O-])cc3)c(=O)[nH]c2n1
inactive: dose: 60.0 mg/kg/injection, schedule: Q01DX005 (ip), vehicle: saline with Tween-80 94 % of control | dose: 120.0 mg/kg/injection, schedule: Q01DX005 (ip), vehicle: saline with Tween-80 91 % of control | dose: 240.0 mg/kg/injection, schedule: Q01DX005 (ip), vehicle: saline with Tween-80 91 % of control

C=C1CC2(OC1=O)C(C1COC(C)(C)O1)OC1OC(C)(C)OC12 (stereo not drawn)
inactive: dose: 25.0 mg/kg/injection, schedule: Q04DX002 (ip), vehicle: saline 96 % of control | [7] 105 % of control | dose: 50.0 mg/kg/injection, schedule: Q04DX002 (ip), vehicle: saline 99 % of control | [8] 110 % of control | dose: 100.0 mg/kg/injection, schedule: Q04DX002 (ip), vehicle: saline 104 % of control | [9] 105 % of control

OC1(O)/C=C\CCCCC/C=C\1
inactive: dose: 25.0 mg/kg/injection, schedule: Q01DX005 (ip), vehicle: saline with Tween-80 100 % of control | [7] 101 % of control | [8] 99 % of control and 102 % of control | [9] 105 % of control

Nc1ncc2[nH]c(N)nc2n1
inactive: dose: 12.5 mg/kg/injection, schedule: Q01DX005 (ip), vehicle: Klucel (hydroxypropylcellulose) (HPC) 106 % of control | dose: 25.0 mg/kg/injection, schedule: Q01DX005 (ip), vehicle: Klucel (hydroxypropylcellulose) (HPC) 97 % of control | [10] 104 % of control and 107 % of control

CCC(=NCCCCCCN=C(CC)c1cc(O)ccc1O)c1cc(O)ccc1O.[Fe]
inactive: [7] 88 % of control | [8] 89 % of control | [9] 91 % of control

CN(C)/C=C/C=C1\CCCC1=O
inactive: dose: 50.0 mg/kg/injection, schedule: Q04DX002 (ip), vehicle: saline with Tween-80 103 % of control | [4] 100 % of control | [5] 108 % of control

Cc1ccsc1C(=O)c1ccccc1[N+](=O)[O-]
inactive: [10] 94 % of control | [11] 94 % of control | [12] 100 % of control

Nc1n[n+](-c2cccc([N+](=O)[O-])c2)no1
inactive: dose: 3.13 mg/kg/injection, schedule: Q01DX009 (ip), vehicle: other 113 % of control | dose: 3.13 mg/kg/injection, schedule: Q01DX009 (ip), vehicle: water 106 % of control | dose: 6.25 mg/kg/injection, schedule: Q01DX009 (ip), vehicle: other 113 % of control | dose: 6.25 mg/kg/injection, schedule: Q01DX009 (ip), vehicle: water 110 % of control | dose: 25.0 mg/kg/injection, schedule: Q01DX009 (ip), vehicle: water 121 % of control | dose: 50.0 mg/kg/injection, schedule: Q01DX009 (ip), vehicle: other 113 % of control

COC(=O)C1=C(O)C(C(=O)OC)C2C(C(=O)OC)=C(O)C(C(=O)OC)C12 (stereo not drawn)
inactive: [10] 97 % of control | [11] 103 % of control | [12] 92 % of control
